According to ChEMBL document CHEMBL1649107, “Sulfonate-containing thiiranes as selective gelatinase inhibitors” (ACS Med Chem Lett, 2011):
≈ marks a conversion by molar mass, not a printed value. Calls of active or inactive are those of the source. The calls are words filed in the database; no cut-off is given here.

Target: 72 kDa type IV collagenase (Homo sapiens, UniProt P08253)
Experiment: not given
Conditions: not given

72 kDa type IV collagenase, sequence (P08253 whole entry): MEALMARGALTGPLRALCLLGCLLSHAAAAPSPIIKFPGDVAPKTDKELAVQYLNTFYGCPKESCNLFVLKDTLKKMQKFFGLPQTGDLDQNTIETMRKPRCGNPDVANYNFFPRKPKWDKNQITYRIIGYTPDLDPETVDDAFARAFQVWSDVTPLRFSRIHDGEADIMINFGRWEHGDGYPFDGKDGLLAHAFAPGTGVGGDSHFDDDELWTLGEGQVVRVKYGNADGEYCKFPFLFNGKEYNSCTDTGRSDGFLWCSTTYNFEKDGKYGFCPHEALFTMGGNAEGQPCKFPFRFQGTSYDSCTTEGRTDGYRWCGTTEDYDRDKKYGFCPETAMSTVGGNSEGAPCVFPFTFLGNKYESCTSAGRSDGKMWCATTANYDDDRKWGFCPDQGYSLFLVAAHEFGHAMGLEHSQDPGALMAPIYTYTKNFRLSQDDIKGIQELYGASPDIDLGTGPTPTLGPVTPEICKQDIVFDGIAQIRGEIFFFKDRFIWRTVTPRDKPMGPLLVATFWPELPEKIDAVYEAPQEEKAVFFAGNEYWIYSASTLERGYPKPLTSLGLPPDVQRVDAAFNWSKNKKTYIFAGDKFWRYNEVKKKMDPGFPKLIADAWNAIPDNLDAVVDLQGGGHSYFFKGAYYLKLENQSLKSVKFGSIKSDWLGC

Q: Which Ki does the source give for CCS(=O)(=O)Oc1ccc(Oc2ccc(S(=O)(=O)CC3CS3)cc2)cc1 (stereo not drawn) here?
A: 70 nM

Q: With CCCS(=O)(=O)Oc1ccc(Oc2ccc(S(=O)(=O)CC3CS3)cc2)cc1 (stereo not drawn) as the compound, how does the Ki read?
A: 34 nM

Q: Which Ki does the source give for CS(=O)(=O)Oc1ccc(S(=O)(=O)CC2CS2)cc1 (stereo not drawn) here?
A: 390 nM

Target: T1, Stromelysin-1 (Homo sapiens, UniProt P08254)
Experiment: not given
Conditions: not given
Target sequence in this assay (P08254 whole entry): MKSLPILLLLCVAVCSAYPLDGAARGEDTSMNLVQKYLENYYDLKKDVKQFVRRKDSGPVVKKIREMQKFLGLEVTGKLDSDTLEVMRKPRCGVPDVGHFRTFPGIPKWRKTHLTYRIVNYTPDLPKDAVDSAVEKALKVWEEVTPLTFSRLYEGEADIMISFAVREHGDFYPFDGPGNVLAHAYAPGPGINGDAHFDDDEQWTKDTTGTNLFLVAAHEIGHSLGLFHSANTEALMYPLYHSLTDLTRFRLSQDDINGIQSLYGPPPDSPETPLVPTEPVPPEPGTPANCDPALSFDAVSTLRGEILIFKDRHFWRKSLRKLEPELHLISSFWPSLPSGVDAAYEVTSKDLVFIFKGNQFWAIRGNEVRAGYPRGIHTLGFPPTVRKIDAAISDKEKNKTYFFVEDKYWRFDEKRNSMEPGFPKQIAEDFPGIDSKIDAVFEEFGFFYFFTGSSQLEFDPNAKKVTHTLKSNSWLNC

Q: For CS(=O)(=O)Oc1ccc(Oc2ccc(S(=O)(=O)CC3CS3)cc2)cc1 (stereo not drawn), which Ki is on record?
A: 600 nM

Target: T1, Stromelysin-1
Experiment: Inhibition of human recombinant MMP3 catalytic domain at 200 uM by substrate hydrolysis based fluorescence spectrophotometry
Conditions: not given
Target sequence in this assay (P08254 100-477 limits assumed): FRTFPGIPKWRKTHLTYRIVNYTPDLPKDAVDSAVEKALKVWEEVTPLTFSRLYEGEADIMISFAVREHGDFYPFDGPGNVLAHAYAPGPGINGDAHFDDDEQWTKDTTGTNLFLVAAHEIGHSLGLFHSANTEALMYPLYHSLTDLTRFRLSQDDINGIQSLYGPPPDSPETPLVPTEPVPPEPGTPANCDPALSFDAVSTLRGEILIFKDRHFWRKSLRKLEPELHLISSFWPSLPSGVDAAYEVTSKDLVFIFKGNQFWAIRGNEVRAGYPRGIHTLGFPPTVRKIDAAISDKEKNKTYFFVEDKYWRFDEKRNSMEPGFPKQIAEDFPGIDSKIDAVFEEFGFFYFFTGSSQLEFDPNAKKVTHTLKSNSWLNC

Q: Which inhibition does the source give for CS(=O)(=O)Oc1ccc(S(=O)(=O)CC2CS2)cc1 (stereo not drawn) here?
A: 29%

System: not listed separately
Experiment: Half life in rat liver microsomes at 200 uM by HPLC
Assay type: ADME, Microsome
Conditions: not given

Q: With CS(=O)(=O)Oc1ccc(S(=O)(=O)CC2CS2)cc1 (stereo not drawn) as the compound, how does the half-life at 200 µM read?
A: 45.3 min

System: not listed separately
Experiment: physchem
Conditions: aqueous
Description: Aqueous solubility of the compound

Q: For CS(=O)(=O)Oc1ccc(Oc2ccc(S(=O)(=O)CC3CS3)cc2)cc1 (stereo not drawn), which solubility is on record?
A: 3.5 µg/mL (≈ 8.74 µM)

Q: For CCS(=O)(=O)Oc1ccc(Oc2ccc(S(=O)(=O)CC3CS3)cc2)cc1 (stereo not drawn), which solubility is on record?
A: 4.1 µg/mL (≈ 9.89 µM)

Q: For CCCS(=O)(=O)Oc1ccc(Oc2ccc(S(=O)(=O)CC3CS3)cc2)cc1 (stereo not drawn), which solubility is on record?
A: 4 µg/mL (≈ 9.33 µM)

Q: For CS(=O)(=O)Oc1ccc(S(=O)(=O)CC2CS2)cc1 (stereo not drawn), which solubility is on record?
A: 167 µg/mL (≈ 542 µM)

Target: T2, Matrix metalloproteinase-14 (Homo sapiens, UniProt P50281)
Experiment: Inhibition of human recombinant MMP14 catalytic domain assessed as dissociation rate constant by substrate hydrolysis based fluorescence spectrophotometry
Conditions: not given

Q: With CCS(=O)(=O)Oc1ccc(Oc2ccc(S(=O)(=O)CC3CS3)cc2)cc1 (stereo not drawn) as the compound, how does the Activity read?
A: 9 ×10⁻³ /s

Q: For CCCS(=O)(=O)Oc1ccc(Oc2ccc(S(=O)(=O)CC3CS3)cc2)cc1 (stereo not drawn), which Activity is on record?
A: 1.8 ×10⁻³ /s

Q: For CS(=O)(=O)Oc1ccc(S(=O)(=O)CC2CS2)cc1 (stereo not drawn), which Activity is on record?
A: 0.2 ×10⁻³ /s

Target: T3, Interstitial collagenase (Homo sapiens) (UniProt P03956)
T3 sequence (whole entry): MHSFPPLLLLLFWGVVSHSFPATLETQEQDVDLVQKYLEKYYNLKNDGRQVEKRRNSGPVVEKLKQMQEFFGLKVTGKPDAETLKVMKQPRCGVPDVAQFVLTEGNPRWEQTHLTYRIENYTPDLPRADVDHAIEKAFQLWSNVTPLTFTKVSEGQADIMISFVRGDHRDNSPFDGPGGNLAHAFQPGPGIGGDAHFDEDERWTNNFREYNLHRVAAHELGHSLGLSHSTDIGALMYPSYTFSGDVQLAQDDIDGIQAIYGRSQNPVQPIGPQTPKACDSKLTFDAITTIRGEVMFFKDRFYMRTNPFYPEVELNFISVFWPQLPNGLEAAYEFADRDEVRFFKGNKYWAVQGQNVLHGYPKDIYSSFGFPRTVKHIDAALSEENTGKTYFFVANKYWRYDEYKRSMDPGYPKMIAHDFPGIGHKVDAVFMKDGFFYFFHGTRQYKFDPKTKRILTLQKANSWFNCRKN
Experiment: Inhibition of human recombinant MMP1 catalytic domain at 20 uM by substrate hydrolysis based fluorescence spectrophotometry
Conditions: not given

Q: For CCCS(=O)(=O)Oc1ccc(Oc2ccc(S(=O)(=O)CC3CS3)cc2)cc1 (stereo not drawn), which inhibition is on record?
A: inactive

Target: T2, Matrix metalloproteinase-14
Experiment: Inhibition of human recombinant MMP14 catalytic domain by substrate hydrolysis based fluorescence spectrophotometry
Conditions: not given

Q: With O=S(=O)(CC1CS1)c1ccc(Oc2ccccc2)cc1 (stereo not drawn) as the compound, how does the Ki read?
A: 110 nM

Q: With CCS(=O)(=O)Oc1ccc(Oc2ccc(S(=O)(=O)CC3CS3)cc2)cc1 (stereo not drawn) as the compound, how does the Ki read?
A: 360 nM

Q: Which Ki does the source give for CCCS(=O)(=O)Oc1ccc(Oc2ccc(S(=O)(=O)CC3CS3)cc2)cc1 (stereo not drawn) here?
A: 240 nM

Q: For CS(=O)(=O)Oc1ccc(S(=O)(=O)CC2CS2)cc1 (stereo not drawn), which Ki is on record?
A: 480 nM

Target: T4, Interstitial collagenase (Homo sapiens, UniProt P03956)
T4 sequence (P03956 whole entry): T3 sequence (whole entry)
Experiment: not given
Conditions: not given

Q: With CS(=O)(=O)Oc1ccc(S(=O)(=O)CC2CS2)cc1 (stereo not drawn) as the compound, how does the Ki read?
A: 41000 nM

Target: T5, Matrilysin (Homo sapiens) (UniProt P09237)
T5 sequence (whole entry): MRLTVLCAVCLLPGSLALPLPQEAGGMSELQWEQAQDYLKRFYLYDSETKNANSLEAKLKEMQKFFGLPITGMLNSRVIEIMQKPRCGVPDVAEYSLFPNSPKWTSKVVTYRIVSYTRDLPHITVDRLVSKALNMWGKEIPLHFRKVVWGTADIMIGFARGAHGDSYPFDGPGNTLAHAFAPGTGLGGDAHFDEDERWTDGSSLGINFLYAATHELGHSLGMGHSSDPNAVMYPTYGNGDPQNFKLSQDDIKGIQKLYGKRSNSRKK
Experiment: Inhibition of human recombinant MMP7 catalytic domain at 40 uM by substrate hydrolysis based fluorescence spectrophotometry
Conditions: not given

Q: For CCS(=O)(=O)Oc1ccc(Oc2ccc(S(=O)(=O)CC3CS3)cc2)cc1 (stereo not drawn), which inhibition is on record?
A: 8%

Target: T5, Matrilysin (Homo sapiens)
Experiment: Inhibition of human recombinant MMP7 catalytic domain assessed as dissociation rate constant by substrate hydrolysis based fluorescence spectrophotometry
Conditions: not given

Q: Which Activity does the source give for CS(=O)(=O)Oc1ccc(S(=O)(=O)CC2CS2)cc1 (stereo not drawn) here?
A: 0.5 ×10⁻³ /s

System: not listed separately
Experiment: Intrinsic clearance in rat liver microsomes at 100 uM by HPLC
Assay type: ADME, Microsome
Conditions: not given

Q: With O=S(=O)(CC1CS1)c1ccc(Oc2ccccc2)cc1 (stereo not drawn) as the compound, how does the CLint scaled at 100 µM read?
A: 117 mL/min/kg

Q: For CS(=O)(=O)Oc1ccc(Oc2ccc(S(=O)(=O)CC3CS3)cc2)cc1 (stereo not drawn), which CLint scaled at 100 µM is on record?
A: 56.5 mL/min/kg

Q: Which CLint scaled at 100 µM does the source give for CCS(=O)(=O)Oc1ccc(Oc2ccc(S(=O)(=O)CC3CS3)cc2)cc1 (stereo not drawn) here?
A: 39 mL/min/kg

Q: Which CLint scaled at 100 µM does the source give for CCCS(=O)(=O)Oc1ccc(Oc2ccc(S(=O)(=O)CC3CS3)cc2)cc1 (stereo not drawn) here?
A: 111 mL/min/kg

Target: T6, Matrix metalloproteinase-9 (Homo sapiens, UniProt P14780)
T6 sequence (P14780 whole entry): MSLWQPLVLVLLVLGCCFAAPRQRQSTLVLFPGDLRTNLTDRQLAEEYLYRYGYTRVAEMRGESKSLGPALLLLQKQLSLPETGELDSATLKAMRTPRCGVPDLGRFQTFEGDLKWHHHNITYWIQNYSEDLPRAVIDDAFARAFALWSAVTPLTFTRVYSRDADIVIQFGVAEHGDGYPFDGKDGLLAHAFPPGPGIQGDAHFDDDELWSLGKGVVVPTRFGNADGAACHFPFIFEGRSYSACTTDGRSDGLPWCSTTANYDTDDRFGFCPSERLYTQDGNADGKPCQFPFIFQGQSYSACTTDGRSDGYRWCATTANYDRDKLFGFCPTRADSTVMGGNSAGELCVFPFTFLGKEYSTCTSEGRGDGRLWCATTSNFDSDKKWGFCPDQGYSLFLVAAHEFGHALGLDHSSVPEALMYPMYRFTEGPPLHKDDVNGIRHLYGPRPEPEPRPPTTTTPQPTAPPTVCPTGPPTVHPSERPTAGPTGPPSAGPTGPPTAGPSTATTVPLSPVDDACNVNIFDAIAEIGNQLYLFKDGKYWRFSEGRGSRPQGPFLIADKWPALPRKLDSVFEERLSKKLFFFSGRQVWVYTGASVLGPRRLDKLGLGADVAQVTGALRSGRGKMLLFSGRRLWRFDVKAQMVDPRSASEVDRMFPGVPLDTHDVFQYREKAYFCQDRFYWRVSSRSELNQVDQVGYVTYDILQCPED
Experiment: not given
Conditions: not given

Q: Which Ki does the source give for CCS(=O)(=O)Oc1ccc(Oc2ccc(S(=O)(=O)CC3CS3)cc2)cc1 (stereo not drawn) here?
A: 330 nM

Q: For CCCS(=O)(=O)Oc1ccc(Oc2ccc(S(=O)(=O)CC3CS3)cc2)cc1 (stereo not drawn), which Ki is on record?
A: 520 nM

Q: For CS(=O)(=O)Oc1ccc(S(=O)(=O)CC2CS2)cc1 (stereo not drawn), which Ki is on record?
A: 3900 nM

Target: T6, Matrix metalloproteinase-9
Experiment: Inhibition of human recombinant MMP9 catalytic domain assessed as dissociation rate constant by substrate hydrolysis based fluorescence spectrophotometry
Conditions: not given

Q: With O=S(=O)(CC1CS1)c1ccc(Oc2ccccc2)cc1 (stereo not drawn) as the compound, how does the Activity read?
A: 7.1 ×10⁻³ /s

Q: Which Activity does the source give for CS(=O)(=O)Oc1ccc(Oc2ccc(S(=O)(=O)CC3CS3)cc2)cc1 (stereo not drawn) here?
A: 0.1 ×10⁻³ /s

Q: Which Activity does the source give for CCS(=O)(=O)Oc1ccc(Oc2ccc(S(=O)(=O)CC3CS3)cc2)cc1 (stereo not drawn) here?
A: 1.5 ×10⁻³ /s

Q: Which Activity does the source give for CCCS(=O)(=O)Oc1ccc(Oc2ccc(S(=O)(=O)CC3CS3)cc2)cc1 (stereo not drawn) here?
A: 1.6 ×10⁻³ /s

Q: Which Activity does the source give for CS(=O)(=O)Oc1ccc(S(=O)(=O)CC2CS2)cc1 (stereo not drawn) here?
A: 0.25 ×10⁻³ /s

Target: T5, Matrilysin (Homo sapiens)
Experiment: Inhibition of human recombinant MMP7 catalytic domain at 20 uM by substrate hydrolysis based fluorescence spectrophotometry
Conditions: not given

Q: For CCCS(=O)(=O)Oc1ccc(Oc2ccc(S(=O)(=O)CC3CS3)cc2)cc1 (stereo not drawn), which inhibition is on record?
A: 5%

Target: T3, Interstitial collagenase (Homo sapiens)
Experiment: Inhibition of human recombinant MMP1 catalytic domain at 40 uM by substrate hydrolysis based fluorescence spectrophotometry
Conditions: not given

Q: With CCS(=O)(=O)Oc1ccc(Oc2ccc(S(=O)(=O)CC3CS3)cc2)cc1 (stereo not drawn) as the compound, how does the inhibition read?
A: inactive

System: not listed separately
Experiment: Intrinsic clearance in rat liver microsomes at 200 uM by HPLC
Assay type: ADME, Microsome
Conditions: not given

Q: Which CLint scaled at 200 µM does the source give for CS(=O)(=O)Oc1ccc(S(=O)(=O)CC2CS2)cc1 (stereo not drawn) here?
A: 31 mL/min/kg

Target: T1, Stromelysin-1
Experiment: Inhibition of human recombinant MMP3 catalytic domain at 20 uM by substrate hydrolysis based fluorescence spectrophotometry
Conditions: not given
Target sequence in this assay (P08254 100-477 limits assumed): as the sequence (P08254 100-477 limits assumed) above

Q: For CCS(=O)(=O)Oc1ccc(Oc2ccc(S(=O)(=O)CC3CS3)cc2)cc1 (stereo not drawn), which inhibition is on record?
A: 38%

Q: Which inhibition does the source give for CCCS(=O)(=O)Oc1ccc(Oc2ccc(S(=O)(=O)CC3CS3)cc2)cc1 (stereo not drawn) here?
A: 22%

Target: T7, Matrilysin (Homo sapiens, UniProt P09237)
T7 sequence (P09237 whole entry): T5 sequence (whole entry)
Experiment: not given
Conditions: not given

Q: With CS(=O)(=O)Oc1ccc(S(=O)(=O)CC2CS2)cc1 (stereo not drawn) as the compound, how does the Ki read?
A: 11000 nM

System: not listed separately
Experiment: Half life in rat liver microsomes at 100 uM by HPLC
Assay type: ADME, Microsome
Conditions: not given

Q: With O=S(=O)(CC1CS1)c1ccc(Oc2ccccc2)cc1 (stereo not drawn) as the compound, how does the half-life at 100 µM read?
A: 12 min

Q: Which half-life at 100 µM does the source give for CS(=O)(=O)Oc1ccc(Oc2ccc(S(=O)(=O)CC3CS3)cc2)cc1 (stereo not drawn) here?
A: 24.8 min

Q: Which half-life at 100 µM does the source give for CCS(=O)(=O)Oc1ccc(Oc2ccc(S(=O)(=O)CC3CS3)cc2)cc1 (stereo not drawn) here?
A: 35.9 min

Q: With CCCS(=O)(=O)Oc1ccc(Oc2ccc(S(=O)(=O)CC3CS3)cc2)cc1 (stereo not drawn) as the compound, how does the half-life at 100 µM read?
A: 12.6 min
